Source: PMC6965176, “Targeting Forward and Reverse EphB4/EFNB2 Signaling by a Peptide with Dual Functions” (Scientific Reports, 2020)
Non-standard residues stand in square brackets, D forms with d. Residues, ends and D or L forms follow the SMILES beside them.

Tests used:
[1] = test system: MDA-HGSC-1 PDX tumor; assay: Subcutaneous MDA-HGSC-1 patient-derived xenograft model; assay type: in vivo, mice; conditions: 300 µg/injection i.p., 14 doses (Fig. S10B)
Source text: Under Institutional Review Board (IRB protocol PA15-0441) and IACUC approval at MD Anderson Cancer Center, patients with HGSC who were being treated at MD Anderson gave consent for the use of their tumor tissue in this study. Four- to six-week-old female Balb C athymic nude mice (Harlan Laboratories) were implanted with one PDX 3×3×3 mm tumor cube (MDA-HGSOC-1 high-grade serous ovarian cancer; generation 9) in the dorsal flank to create subcutaneous HGSC-PDX model. Tumor size was monitored by caliber, and tumor volume was calculated using the formula V(cm^3) = (length x width^2)/2. Mice were randomly assigned to the PBS vehicle control or BIDEN-AP treatment group, 6 mice per group, once tumor size reached ~100 mm^3 (21 days after implantation). Treatments consisted of intraperitoneal injection of PBS or BIDEN-AP at 300 μg/injection (100 μL/injection) once every other day for a total of 14 doses. At the end of the study (day 49), all mice were euthanized, and tumors were collected, weighed, snap-frozen in optimal cutting temperature compound with liquid nitrogen, and cryosectioned into 5-μm sections for immunohistochemical staining of CD31 and Ki67 markers.
incubated overnight at 4°C.
Slides were subjected to recombinant terminal
The slides were then labeled by adding
Microvessel density was evaluated
magnification from three tumor samples.
For CD31 staining, slides were […]

[2] = molecular target: T1, EphB4 on the surface of A2780cp20 cells (Homo sapiens, UniProt P54760); assay: Cell-based binding assay: displacement of EFNB2-Fc from A2780cp20 cells (flow cytometry); conditions: EFNB2-Fc 20 nM, BIDEN-AP 0-100 µM, 25 °C, 1 h, PE-anti-Fc flow cytometry, duplicate (Fig. 1D,E)
T1 construct: endogenous in cells; host or cells: A2780cp20 ovarian cancer cells
T1 sequence (P54760 16-987): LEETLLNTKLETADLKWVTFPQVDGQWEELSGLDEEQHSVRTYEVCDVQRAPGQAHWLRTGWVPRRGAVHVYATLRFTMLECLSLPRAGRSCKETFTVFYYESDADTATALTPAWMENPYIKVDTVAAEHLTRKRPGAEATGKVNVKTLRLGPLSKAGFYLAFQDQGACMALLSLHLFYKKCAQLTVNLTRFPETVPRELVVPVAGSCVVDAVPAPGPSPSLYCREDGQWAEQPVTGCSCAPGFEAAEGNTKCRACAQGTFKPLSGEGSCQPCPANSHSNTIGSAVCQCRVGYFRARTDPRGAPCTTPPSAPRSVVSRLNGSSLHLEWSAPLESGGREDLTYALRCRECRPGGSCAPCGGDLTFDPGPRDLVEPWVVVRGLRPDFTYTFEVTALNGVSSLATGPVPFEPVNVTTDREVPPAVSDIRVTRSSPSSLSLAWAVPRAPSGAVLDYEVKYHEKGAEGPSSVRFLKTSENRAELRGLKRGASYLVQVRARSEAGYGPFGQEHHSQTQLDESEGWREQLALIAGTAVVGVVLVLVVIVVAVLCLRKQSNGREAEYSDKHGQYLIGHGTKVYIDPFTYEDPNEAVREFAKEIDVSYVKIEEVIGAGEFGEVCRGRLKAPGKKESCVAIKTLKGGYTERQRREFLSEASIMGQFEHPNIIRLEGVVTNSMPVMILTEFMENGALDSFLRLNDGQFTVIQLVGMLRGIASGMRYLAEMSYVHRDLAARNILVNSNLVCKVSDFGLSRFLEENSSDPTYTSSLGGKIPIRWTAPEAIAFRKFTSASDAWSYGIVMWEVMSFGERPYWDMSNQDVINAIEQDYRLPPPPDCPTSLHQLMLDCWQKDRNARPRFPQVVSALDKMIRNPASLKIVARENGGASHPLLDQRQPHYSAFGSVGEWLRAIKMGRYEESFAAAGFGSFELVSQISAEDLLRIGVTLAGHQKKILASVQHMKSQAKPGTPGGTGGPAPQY
Description: Figure 1 Novel EphB4 agonist BIDEN-AP has high receptor binding affinity. (A) Structure of BIDEN-AP. D-Tyr-P3 is highlighted in red. (B) Surface plasmon resonance (SPR) sensorgrams of BIDEN-AP. Vertical axes, in response units (RU), represent binding of the peptide to immobilized EphB4. (C) Competition of BIDEN-AP with EFNB2-Fc for EphB4 binding. BIDEN-AP at concentrations from 2 nM to 1000 nM was mixed with human EphB4 (30 nM) and injected onto sensor chips coated with EFNB2-Fc. (D) Competition of BIDEN-AP with EFNB2-Fc for EphB4 binding at the cellular level. A2780cp20 cells were co-incubated with EFNB2-Fc (20 nM) and BIDEN-AP (at concentrations from 0 to 100 µM) at 25 °C for 1 h. EFNB2-Fc bound to the cells was probed with phycoerythrin-labeled anti-Fc antibody and analyzed by flow cytometry. (E) Bound EFNB2-Fc as a function of BIDEN-AP concentration. […]
A2780cp20 ovarian cancer cells (1×10^6 cells/mL) were incubated with EFNB2-Fc (20 nM) and BIDEN-AP at concentrations ranging from 0 to 100 µM at 25 °C for 1 h. After washings, EFNB2-Fc bound to the cells were probed with phycoerythrin (PE)-labeled anti-Fc antibody and analyzed by flow cytometry. Binding of BIDEN-AP to A2780cp20 cells was determined by its capacity to displace EFNB2-Fc’s binding to the tumor cells, measured by decreased PE fluorescence signal. Cells were analyzed in a Cellquest fluorocytometer (BD Bioscience, San Jose, CA). […]

IC50 [2]: ~1000 nM
Structure (SMILES): CC[C@H](C)[C@H](NC(=O)[C@@H]1CCCN1C(=O)CNC(=O)[C@H](CC(N)=O)NC(=O)[C@@H]1CCCN1C(=O)[C@H](CO)NC(=O)[C@H](Cc1ccccc1)NC(=O)[C@H](CC(C)C)NC(=O)[C@@H](Cc1ccc(O)cc1)NC(=O)[C@H](CC(N)=O)NC(=O)[C@@H](N)[C@@H](C)O)C(=O)N[C@@H](C)C(=O)N[C@@H](CCCNC(=N)N)C(=O)N[C@@H](C)C(=O)N[C@@H](Cc1c[nH]c2ccccc12)C(N)=O [BIDEN-AP] (H-TN[dY]LFSPNGPIARAW-NH2)
body weight change compared to control group [1]: did not cause body weight change
